Structures can show the parent of a compound that is named as a salt. Where two headings read alike, the source gives them in different places.
Legend:
Human DYRK1B = molecular target: T1, Human DYRK1B (Homo sapiens, UniProt Q9Y463); assay: DYRK1B Kinase TR-FRET (IMAP-Tb) Assay; assay type: biochemical
T1 construct: purchased Invitrogen PR8350B (former PV4649)
Source text: DYRK1B Kinase TR-FRET (IMAP-Tb) Assay Assay Principle The kinase TR-FRET (IMAP-Tb) assay uses a fluorescence labeled substrate peptide in the kinase reaction. Upon phosphorylation by the kinase, phosphopeptide is produced, which will be detected by the binding solution provided in IMAP TR-FRET binding kit. After the completion of the kinase reaction, the reaction will be stopped by adding the binding solution containing terbium tracer. This tracer is immobilized on the surface of the IMAP beads, which also contain metal ions on the beads that bind to the phospho-groups of the products. Thus the phosphorylated product of the reaction can enter into close proximity to the tracer, producing resonance energy transfer. Due to the long lifetime of terbium (Tb) fluorescence the detection can be run in time resolved mode, which virtually eliminates fluorescence interference from assay components or compounds. The TR-FRET signal measurement from this assay, given as an IC50 measurement, is a measure of a test compound's ability to interfere with the phosphorylation of the peptide substrate, that is it inhibits the phosphorylation of the substrate peptide by DYRK1B, and is thus a measure of the test compound's ability to inhibit the activity of DYRK1B. IC50 is the amount of test compound that inhibits 50% of the activity of DYRK1B in this assay. In some cases where the IC50 was not determined, then the % inhibition at 10 μM test compound concentration may be reported. Materials and Reagents • 1. Human DYRK1B: from Invitrogen. Part #PR8350B (former PV4649) • 2. Substrate Peptide: in-house synthesized: RRRFRPASPLRGPPK • 3. IMAP TR-FRET IPP Explorer Kit: from Molecular Devices. Part #R8157 • 4. Kinase Assay Buffer (KAB): 10 mM HEPES pH 7.0, 50 mM NaCl, 5 mM MgCl2, 1 mM DTT, 1 mM NaVO4, 200 μg/mL BSA (0.02%) • 5. Assay Plate: Remp polypropylene clear 384-well microplate. Cat#23490-102 • 6. Detection Plate: Costa black 384-well microplate. Cat #3710 Assay Procedure: this Assay was Performed as Follows: • 1. Transfer 1.5 μL of 20× compound solution to each well of an assay plate. • 2. Add to each well 22.5 μL of KAB Buffer. • 3. Add to each well 3 μL of the solution of DYRK1B and ATP. […] Add to each well 3 μL of the substrate peptide. The assay concentration is 1.0 μM • 5. Incubate the assay plates at 37° C. for 60 minutes. • 6. Add 18 μL of Detection Solution (1:800 diluted Progress bead stock, 1:400 diluted Tb stock, 80% Buffer A, and 20% Buffer B) into each well of detection plates. • 7. Transfer 6 μL of assay solution from the assay plate to the detection plate. • 8. Shake detection plates for 30 minutes. • 9. Read plates in Envision with wavelength set at excitation 340 nm for Tb, emission 490 nm, and […] 520 nm. • 10. Calculation: TR-FRET Signal=(Reading at […]/Reading at 490 nM)×2000000

[1] = system: SW620 human colon cancer cells; assay: SW620 Cell Viability Assay; assay type: cell-based; settings: SW-620, 96 h, CellTiter-Glo Luminescent Cell Viability Assay, 4 days incubation, read-out: Cellular EC50 (μM) SW620
Procedure: SW620 Cell Viability Assay
1. Cell Plate Preparation: SW620 human colon cancer cells (known to express DYRK1B), obtained from ATCC, were seeded into 96-well plates at 3×10^3 cells/well in 50 μL of media. • Harvested the required number of cells (counts & viability determined by Guava Viacount). • Centrifuge cells to pellet and removed supernant. • Resuspended in growth media (50 μL/well) & pipetted thoroughly to break up clumps. • Setup for ˜100 wells/plate, therefore, VT=5 mL/plate @ […].
1A. Some cells (S—) were allowed to attach for 24 hrs, serum starved for 48 hrs, and then followed with test compound treatments.
Test compound solution were prepared in regular corresponding media supplemented with serum.
2. Test compound Preparation: Drugs were solubilized in either DMSO or media and prepared at various stock concentrations. • All compounds were incubated at 37° C. for 30 minutes and vortexed. • (5 mM stocks of test compound were prepared for non-soluble test compounds)
3. Test compound Plate Preparation: • The 10 mM test compound stock was diluted to a concentration of 100× the final Cmax concentration. • Then the test compound stock is diluted 50-fold in media and/or second test compound for a final Cmax concentration in the test compound plate. • The Cmax in the test compound plate (2% DMSO) is 2-fold higher than the final Cmax in the cell plate (60 μl, titrations were 1:3).
4. Viability Assay: This assay was performed as follows: • Transfer 50 μL of test compound solution per well from the test compound plate onto the cell plate prepared in Step #1. • Mix the plate with treated cells by pipetting up and down three times with 200 μL multi-channel pipette. • Incubate the cells in 5% CO2 incubator @ 37° C. for 4 days. • Run the CellTiter-Glo™ Luminescent Cell Viability Assay.
The results of this assay, given as EC50 values, indicate the concentration of test compound that inhibits tumor cell proliferation by 50%.

Human DYRK1A = molecular target: T2, Human DYRK1A (Homo sapiens, UniProt Q13627); assay: DYRK1A Kinase TR-FRET (IMAP-Tb) Assay; assay type: biochemical; settings: TR-FRET (IMAP-Tb); ATP 70 μM; 37° C. for 60 minutes; averages of multiple runs; read-out: Enzyme IC50 (μM) DYRK1A
T2 construct: purchased Invitrogen PV3997
Source text: DYRK1A Kinase TR-FRET (IMAP-Tb) Assay
The kinase TR-FRET (IMAP-Tb) assay uses a fluorescence labeled substrate peptide in the kinase reaction. Upon phosphorylation by the kinase, phosphopeptide is produced, which will be detected by the binding solution provided in IMAP TR-FRET binding kit. After the completion of the kinase reaction, the reaction will be stopped by adding the binding solution containing terbium tracer. This tracer is immobilized on the surface of the IMAP beads, which also contain metal ions on the beads that bind to the phospho-groups of the products. Thus the phosphorylated product of the reaction can enter into close proximity to the tracer, producing resonance energy transfer. Due to the long lifetime of terbium (Tb) fluorescence the detection can be run in time resolved mode, which virtually eliminates fluorescence interference from assay components or compounds.
The TR-FRET signal measurement from this assay, given as an IC50 measurement, is a measure of a test compound's ability to interfere with the phosphorylation of the peptide substrate, that is it inhibits the phosphorylation of the substrate peptide by DYRK1A, and is thus a measure of the test compound's ability to inhibit the activity of DYRK1A.
Materials and Reagents • 1. Human DYRK1A: from Invitrogen. Part #PV3997 • 2. Substrate Peptide: […] • 3. IMAP TR-FRET IPP Explorer Kit: from Molecular Devices. Part #R8157 • 4. Kinase Assay Buffer (KAB): 10 mM HEPES pH 7.0, 50 mM NaCl, 5 mM MgCl2, 1 mM DTT, 1 mM NaVO4, 200 ug/mL BSA (0.02%) • 5. Assay Plate: Remp polypropylene clear 384-well microplate. […] Detection Plate: Costa black 384-well microplate.
Assay Procedure: this Assay was Performed as Follows: • 1. Transfer 1.5 μL of 20× compound solution to each well of an assay plate. • 2. Add to each well 22.5 μL of KAB Buffer. • 3. Add to each well 3 μL of the solution of DYRK1A and ATP. […] Add to each well 3 μL of the substrate peptide. The assay concentration is 1.0 μM • 5. Incubate the assay plates at 37° C. for 60 minutes. • 6. Add 18 μL of Detection Solution (1:800 diluted Progress bead stock, 1:400 diluted Tb stock, 80% Buffer A, and 20% Buffer B) into each well of detection plates. • 7. Transfer 6 μL of assay solution from the assay plate to the detection plate. • 8. Shake detection plates for 30 minutes. • 9. Read plates in Envision with wavelength set at excitation 340 nm for Tb, emission 490 nm, and […] 520 nm. • 10.

[2] = TR-FRET (IMAP-Tb), ATP 70 μM, 37° C. for 60 minutes, averages of multiple runs, read-out: Enzyme IC50 (μM) DYRK1B

T1 sequence (Q9Y463 whole entry): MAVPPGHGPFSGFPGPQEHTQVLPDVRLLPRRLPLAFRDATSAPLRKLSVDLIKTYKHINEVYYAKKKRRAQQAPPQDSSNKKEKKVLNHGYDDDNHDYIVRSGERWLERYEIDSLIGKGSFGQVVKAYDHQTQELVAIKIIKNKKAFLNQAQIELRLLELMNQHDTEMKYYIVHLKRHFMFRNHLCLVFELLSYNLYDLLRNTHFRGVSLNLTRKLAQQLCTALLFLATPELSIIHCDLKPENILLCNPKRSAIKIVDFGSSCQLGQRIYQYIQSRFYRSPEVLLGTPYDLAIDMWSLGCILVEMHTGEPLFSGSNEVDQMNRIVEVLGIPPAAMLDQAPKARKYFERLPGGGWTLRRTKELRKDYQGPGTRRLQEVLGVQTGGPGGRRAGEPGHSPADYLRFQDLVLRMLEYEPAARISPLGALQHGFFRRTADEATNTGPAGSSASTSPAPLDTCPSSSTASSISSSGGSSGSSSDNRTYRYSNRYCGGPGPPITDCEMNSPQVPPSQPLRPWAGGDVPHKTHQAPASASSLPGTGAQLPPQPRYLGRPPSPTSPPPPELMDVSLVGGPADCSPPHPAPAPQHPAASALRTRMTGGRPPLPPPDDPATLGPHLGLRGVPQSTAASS

SMILES	IC50 (Human DYRK1B; [2])	EC50 [1]	IC50 (Human DYRK1A)	IC50 (Human DYRK1B)
Clc1cccc(CNc2cccc(-c3n[nH]c4nc(NCCN5CCOCC5)ncc34)n2)c1 [Example 47, {3-[6-(3-Chloro-benzylamino)-pyridin-2-yl]-1H-pyrazolo[3,4-d]pyrimidin-6-yl}-(2-morpholin-4-yl-ethyl)-amine]	1.06 µM	> 10 µM	1.39 µM	
N[C@H]1CC[C@H](Nc2ncc3c(-c4cccc(NCc5ccccc5)n4)n[nH]c3n2)CC1 [Example 49, N-[3-(6-Benzylamino-pyridin-2-yl)-1H-pyrazolo[3,4-d]pyrimidin-6-yl]-cyclohexane-1,4-diamine]	0.101 µM	1.71 µM	0.0124 µM	
N[C@H]1CC[C@H](Nc2ncc3c(-c4cccc(NCc5ccccc5)c4)n[nH]c3n2)CC1 [Example 52, N-[3-(3-Benzylamino-phenyl)-1H-pyrazolo[3,4-d]pyrimidin-6-yl]-cyclohexane-1,4-diamine]	0.241 µM	0.923 µM	0.594 µM	
N[C@H]1CC[C@H](Nc2ncc3c(-c4cccc(NCc5cccs5)c4)n[nH]c3n2)CC1 [Example 53, N-(3-{3-[(Thiophen-2-ylmethyl)-amino]-phenyl}-1H-pyrazolo[3,4-d]pyrimidin-6-yl)-cyclohexane-1,4-diamine]	0.183 µM	1.84 µM	0.405 µM	
c1cc(NCc2cccs2)cc(-c2n[nH]c3nc(NCCN4CCOCC4)ncc23)c1 [Example 54, (2-Morpholin-4-yl-ethyl)-(3-{3-[(thiophen-2-ylmethyl)-amino]-phenyl}-1H-pyrazolo[3,4-d]pyrimidin-6-yl)-amine]	4.96 µM	> 10 µM	3.85 µM	
N[C@H]1CC[C@H](Nc2ncc3c(-c4cccc(NCc5ccc(Cl)cc5)c4)n[nH]c3n2)CC1 [Example 55, N-{3-[3-(4-Chloro-benzylamino)-phenyl]-1H-pyrazolo[3,4-d]pyrimidin-6-yl}-cyclohexane-1,4-diamine]	0.181 µM	1.85 µM	0.502 µM	
N[C@H]1CC[C@H](Nc2ncc3c(-c4cccc(NCc5ccccc5Cl)c4)n[nH]c3n2)CC1 [Example 56, N-{3-[3-(2-Chloro-benzylamino)-phenyl]-1H-pyrazolo[3,4-d]pyrimidin-6-yl}-cyclohexane-1,4-diamine]	0.194 µM	4.1 µM	0.346 µM	
Clc1ccccc1CNc1cccc(-c2n[nH]c3nc(NCCN4CCOCC4)ncc23)c1 [Example 57, {3-[3-(2-Chloro-benzylamino)-phenyl]-1H-pyrazolo[3,4-d]pyrimidin-6-yl}-(2-morpholin-4-yl-ethyl)-amine]	1.55 µM	> 10 µM	2.62 µM	
N[C@H]1CC[C@H](Nc2ncc3c(-c4cccc(NCc5ccsc5)c4)n[nH]c3n2)CC1 [Example 58, N-(3-{3-[(Thiophen-3-ylmethyl)-amino]-phenyl}-1H-pyrazolo[3,4-d]pyrimidin-6-yl)-cyclohexane-1,4-diamine]	0.762 µM	6.41 µM	2.61 µM	
Clc1ccccc1CNc1cccc(-c2n[nH]c3nc(NCCN4CCOCC4)ncc23)n1 [Example 59, {3-[6-(2-Chloro-benzylamino)-pyridin-2-yl]-1H-pyrazolo[3,4-d]pyrimidin-6-yl}-(2-morpholin-4-yl-ethyl)-amine]	0.924 µM	> 10 µM	0.663 µM	
NCC(Nc1nccc(-c2n[nH]c3nc(NCCN4CCOCC4)ncc23)n1)c1ccccc1 (centres unmarked) [Example 83, N1-{4-[6-(2-Morpholin-4-yl-ethylamino)-1H-pyrazolo[3,4-d]pyrimidin-3-yl]-pyrimidin-2-yl}-1-phenyl-ethane-1,2-diamine; hydrochloride]		0.56 µM		0.0183 µM
OCCNc1ncc2c(-c3ccnc(NCc4cccc(Cl)c4)n3)n[nH]c2n1 [Example 91, 2-{3-[2-(3-Chloro-benzylamino)-pyrimidin-4-yl]-1H-pyrazolo[3,4-d]pyrimidin-6-ylamino}-ethanol; hydrochloride]	0.183 µM		0.25 µM	
Clc1cccc(CNc2nccc(-c3n[nH]c4nc(NCCN5CCNCC5)ncc34)n2)c1 [Example 92, {3-[2-(3-Chloro-benzylamino)-pyrimidin-4-yl]-1H-pyrazolo[3,4-d]pyrimidin-6-yl}-(2-piperazin-1-yl-ethyl)-amine; hydrochloride]	0.057 µM		0.076 µM	
Clc1cccc(CNc2nccc(-c3n[nH]c4nc(NCCN5CCCCC5)ncc34)n2)c1 [Example 93, hydrochloride]	0.93 µM		0.46 µM	

— patent publication US8362023B2, “Pyrazolo pyrimidines” (Hoffmann-La Roche Inc., priority 2011, dated 2013)
